ChEMBL document CHEMBL1201862, “PubChem BioAssay data set” (2004)
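Values below derive from 48-hour exposures of cells grown in 96-well plates, with endpoints linearly interpolated between the two concentrations bracketing the appropriate inhibition level. Abbreviation: GI50, concentration required for 50% inhibition of growth.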 Active and inactive are the calls of the source. Rule as the data show it: active = GI50 up to about 1.1 µM and inactive = higher.

Columns and labels:
Assay in all cases: NCI tumour cell line growth inhibition, 48 h
SK-MEL-5 = test system: SK-MEL-5
SF-539 = test system: SF-539
DU-145 = test system: DU-145
HL-60 = test system: HL-60
SK-OV-3 = test system: SK-OV-3
OVCAR-4 = test system: OVCAR-4
HCT-116 = test system: HCT-116
U-251 = test system: U-251
SN12C = test system: SN12C
COLO 205 = test system: COLO 205
MDA-MB-231 = test system: MDA-MB-231
K562 = test system: K562
KM12 = test system: KM12
HOP-62 = test system: HOP-62
SNB-19 = test system: SNB-19
UACC-257 = test system: UACC-257
RXF 393 = test system: RXF 393
T47D = test system: T47D
SK-MEL-2 = test system: SK-MEL-2

Measured: GI50

CNC(=O)OC(C)CN1c2ccccc2Sc2ccccc21 (configuration not stated)
inactive: SK-MEL-5 59.8 µM | SF-539 64.3 µM | DU-145 > 100 µM | HL-60 7.69 µM | SK-OV-3 > 100 µM | OVCAR-4 74.5 µM | HCT-116 57.5 µM | U-251 > 100 µM | SN12C > 100 µM | COLO 205 41.2 µM | MDA-MB-231 > 100 µM | K562 63.7 µM | KM12 > 100 µM | HOP-62 > 100 µM | SNB-19 > 100 µM | UACC-257 > 100 µM | RXF 393 36.2 µM | T47D > 100 µM

CC1(C)C2CC(O)C1(C)CC2=O (configuration not stated)
inactive: SK-MEL-5 > 100 µM | SF-539 > 100 µM | DU-145 > 100 µM | HL-60 > 100 µM | SK-OV-3 > 100 µM | OVCAR-4 > 100 µM | HCT-116 > 100 µM | U-251 > 100 µM | SN12C > 100 µM | COLO 205 > 100 µM | MDA-MB-231 > 100 µM | K562 > 100 µM | KM12 > 100 µM | HOP-62 > 100 µM | SNB-19 > 100 µM | UACC-257 > 100 µM | RXF 393 > 100 µM | T47D > 100 µM

Cc1cc2c(cc1C)C(=O)/C(=N/Nc1ccc(F)cc1)CCO2
inactive: SK-MEL-5 95.3 µM | SF-539 > 100 µM | SK-MEL-2 20.4 µM | DU-145 > 100 µM | HL-60 26.4 µM | SK-OV-3 > 100 µM | OVCAR-4 > 100 µM | HCT-116 > 100 µM | U-251 > 100 µM | SN12C > 100 µM | COLO 205 > 100 µM | MDA-MB-231 > 100 µM | K562 > 100 µM | KM12 > 100 µM | HOP-62 > 100 µM | SNB-19 > 100 µM | UACC-257 > 100 µM | T47D 5.04 µM

O=[N+]([O-])c1ccc([I+]c2ccccc2)cc1
inactive: SK-MEL-5 8.04 µM | SF-539 7.11 µM | DU-145 8.93 µM | HL-60 5.4 µM | SK-OV-3 2.07 µM | OVCAR-4 4.33 µM | HCT-116 3.77 µM | U-251 5.46 µM | SN12C 1.61 µM | COLO 205 3.11 µM | MDA-MB-231 3.95 µM | K562 4.19 µM | KM12 5.04 µM | HOP-62 11.6 µM | SNB-19 5.52 µM | UACC-257 4.29 µM | RXF 393 3.54 µM | T47D 6.52 µM

N#CN1C2CCC1CC(=O)C2
inactive: SK-MEL-5 > 100 µM | SF-539 > 100 µM | SK-MEL-2 > 100 µM | DU-145 > 100 µM | HL-60 > 100 µM | SK-OV-3 > 100 µM | OVCAR-4 > 100 µM | HCT-116 > 100 µM | U-251 > 100 µM | SN12C > 100 µM | COLO 205 > 100 µM | MDA-MB-231 > 100 µM | K562 > 100 µM | KM12 > 100 µM | HOP-62 > 100 µM | SNB-19 > 100 µM | UACC-257 > 100 µM | T47D > 100 µM

CCOC(=O)/C(=C\c1c(C)[nH]c2ccccc12)P(=O)(OCC)OCC
inactive: SK-MEL-5 > 100 µM | SF-539 > 100 µM | DU-145 > 100 µM | SK-OV-3 > 100 µM | OVCAR-4 > 100 µM | HCT-116 > 100 µM | U-251 > 100 µM | SN12C > 100 µM | COLO 205 > 100 µM | MDA-MB-231 > 100 µM | K562 > 100 µM | KM12 > 100 µM | HOP-62 > 100 µM | SNB-19 > 100 µM | UACC-257 > 100 µM | RXF 393 > 100 µM | T47D > 100 µM

COc1cc(C2SCC(=O)N2c2ccc(-n3c(-c4ccccc4)nc4ccccc4c3=O)cc2)cc(OC)c1OC (configuration not stated)
inactive: SK-MEL-5 68.9 µM | SF-539 > 100 µM | SK-MEL-2 > 100 µM | DU-145 > 100 µM | HL-60 > 100 µM | SK-OV-3 97.1 µM | OVCAR-4 > 100 µM | HCT-116 > 100 µM | U-251 > 100 µM | SN12C > 100 µM | COLO 205 > 100 µM | MDA-MB-231 > 100 µM | K562 > 100 µM | KM12 97.3 µM | HOP-62 > 100 µM | SNB-19 > 100 µM | UACC-257 > 100 µM | T47D 27.9 µM

CC1(C)[C@@H](Cn2ccc(=O)[nH]c2=O)CC[C@@]1(C)CO
inactive: SK-MEL-5 > 100 µM | SK-MEL-2 > 100 µM | DU-145 > 100 µM | SK-OV-3 > 100 µM | OVCAR-4 > 100 µM | HCT-116 > 100 µM | U-251 > 100 µM | SN12C > 100 µM | COLO 205 > 100 µM | MDA-MB-231 > 100 µM | K562 > 100 µM | KM12 > 100 µM | HOP-62 > 100 µM | SNB-19 > 100 µM | UACC-257 > 100 µM | RXF 393 59.2 µM | T47D > 100 µM
